The values below come from patent publication EP0032564A1, “Pharmaceutical use of caroverine and/or salts of caroverine, as well as salts of caroverine with xanthine acid remainders and nicotinic acid remainder” (MEDICHEMIE AG, priority 1979, dated 1981).

Data set [1] has as its system anemische Decerebrationsstarre. The data set can be described thus: Inhibition of anemic decerebrate rigidity in rats, method of Fukuda et al. It counts as in vivo, Wister-Ratten. As to conditions: male rats, i.v.; for ED50: Rattus norvegicus, iv, read-out: Dosis für 50%ige Inhibierung; for ED50 / Zeit für 50%ige Erholung: anemic decerebrate rigidity. The source says:
Die Untersuchungen wurden ausgeführt nach der Methode von Fukuda et al. (Japanese Journal of Pharmacology, Band 24, Seiten 810 - 813, 1974).
Es wurden männliche Wister-Ratten mit einem Köpergewicht von 280 - 380 g verwendet. Die Tiere wurden mit Aether betäubt und am Rücken befestigt. Nach Freilegen der Luft- und Speiseröhre sowie der beiderseitigen, gemeinsamen Carotisarterien wurde die Luftröhre kanüliert und die Speiseröhre abgetrennt. Das Hinterhauptbein wurde durch Abschaben der anhängenden Muskulatur freigelegt. Nach beidseitigem Abbinden der gemeinsamen Carotisarterien wurde im mittleren Teil des Hinterhauptbeines eine Oeffnung von 5 mm Durchmesser trepaniert, um die Basilararterie sichtbar zu machen. Die dura mater wurde längs der Basilararterie durchschnitten und letztere mit einem Coagulator ausgeätzt. Unmittelbar nach Beendigung dieser Massnahmen wurde die Anästhesie unterbrochen. Innerhalb von 30-min entwickelte sich Starre, und es trat eine deutliche Streckung der Extremitäten, des Nackens und des Schwanzes ein. Die Streckung der Vordergliedmassen wurde mit einem Dehnungsmessstreifen erfasst. 50 min nach Erholung von der Betäubung wurden in Salzlösung aufgelöste Pharmaka durch eine in die Oberschenkelvene eingeführte Kanüle intravenös zugeführt. Die verwendeten Pharmaka waren Caroverinfumarat und Referenz-Agenzien, nämlich Mephenesin und Tolperison-Hydrochlorid. Das Ergebnis nach Zuführung von 2 mg/kg Caroverinfumarat sind in der nachstehend eingefügten Tabelle wiedergegeben.

In a further data set the test system is Herzfrequenz. The experiment in a line: Clinical study: heart rate under stepwise i.v. dosing, treatment groups A, B, C. It counts as in vivo, Menschen. The source says:
• a) Anzahl: je 6 Patienten der Gruppen A, B und C. Die Probandenzahl der Gruppe D hängt davon ab […] hoc finden. • b) Die […] des Prüfers. • c) Kontraindikationen […], die nicht für eine klinische Studie mit Ca-Antagonisten geeignet sind, oder unter […] leiden, die die Resultate […]. Die […] 10 und 5' vor Beginn der Medikation. […] Nach Beendigung der Medikation, Nachkontrolle in 10-[…] bis ca. 4 Stunden nach Beginn der Medikation. Abbruch der Medikation bei: • 1) AV-Block 1. […] In einem ersten Schritt wurden die Zeitreihen (Herzfrequenz-Mittelwerte und Streuungen) je Behandlungsgruppe einzeln berechnet und graphisch dargestellt (s. Abbildung und […], die […] auch […] und der 3 Stunden Nachbeobachtung unterscheiden. Es ist ebenfalls festzuhalten, dass die Werte zu Beginn der Applikation gegenüber den Vorwerten durchwegs erhöht sind. Um die Herzfrequenz-Verläufe […] zu […] Differenzen der Mittelwerte zu jedem […] zu den Vorwerten als auch zum Wert bei […] und […] - unter […] und […] - auf Signifikanz geprüft.

Data set [2] deals with Thrombozytenaggregation. The experiment in a line: Collagen-induced platelet aggregation, same method on human blood preparations. It counts as cell-based, menschlichem Blut. As to conditions: same method as with rabbit plasma.
In another data set the test system is Hunden. The data set can be described thus: Coronary sinus outflow, systemic blood pressure and heart rate in dogs. Type of data set: in vivo. As to conditions: dogs, 0,03-3,0 mg/kg, effect increases with dose (Fig. 4-6). On the procedure: Es wurde der coronare Sinus-Ausfluss(CSF), der System-Blutdruck (SEP) und die Herzfrequenz (HR) an Hunden untersucht. Für den coronaren Sinus-Ausfluss wurde die in Clin. Pharmacol. Physiol., 5, 107 - 115, 1978, Australien,beschriebene Untersuchungsmethode angewendet.
Zeitdiagramme der genannten Messgrössen SBP (mmHg), CSF (ml/min) und HR (min ) wurde für […] verschiedene Dosierungen von Caroverinfumarat, nämlich 0,03, 0,1, 0,3, 1,0 und 3,0 mg/kg (bezogen auf das Körpergewicht) aufgenommen. Die Diagramme für die drei erstgenannten Dosierungswerte sind in Fig. 4 und diejenigen für die beiden letztgenannten Dosierungswerte in Fig. 5 bzw. Fig. 6 wiedergegeben. Der Zuführungszeitpunkt der Wirksubstanz ist in den Diagrammen gemäss Fig. 4 durch das Zeichen "o" markiert, während in den Diagrammen gemäss Fig. 5 und 6 das Zuführungsintervall jeweils durch einen Horizontalstrich unterhalb der CSF-Messkurve angegeben ist.

Data set [3] relates to Thrombozytenaggregation. The data set can be described thus: Collagen-induced platelet aggregation in platelet-rich plasma, turbidimetry. Type of data set: cell-based, Kaninchen. The source says:
Thrombozytenreiches Plasma wurde aus citriertem Kaninchenblut gewonnen. Die Thrombozytenaggregation wurde durch Collagen aus Rinder- Achillessehnen induziert, worauf der Aggregations-Hemmeffekt durch optische Trübungsmessung (Turbidimetrie) untersucht und quantifiziert werden konnte.
Bei diesen Diagrammen handelt es sich um Aufnahmen des zeitlichen Verlaufes einer optischen Messgrösse als Mass eines durch das Präparat tretenden Lichtanteils, entsprechend einem reziproken Mass für den Agglutinations- oder Aggregationsgrad. Die verschiedenen Messkurven für je eine Wirksubstanz entsprechen unter- schiedlichen molaren Konzentrationen in Mikromol des Wirkstoffes als Parameter. Die erste Messkurve in Fig. 1 entspricht einem Kontroll-Leerversuch.

The nature of data set [4]: Acute toxicity (LD50) in male mice. As to conditions: mouse, in vivo. An excerpt:
Untersuchung der akuten Toxizität an männlichen Mäusen
Es wurden folgende Standard-Grenzwerte LDSO (mg/kg) ermittelt:
Toxizitätsuntersuchung an männlichen Mäusen

The subject of data set [5] is Patienten mit Arrhythmia absoluta.
Description: Bei insgesamt 6 Patienten (5♀, 1 ♂) mit Arrhythmia absoluta wurden innerhalb 3 - 5 Min. 200 mg Caroverinfumarat i.v. verabreicht. […] Mittleres Alter der Probanden war 65 (+6/-11) Jahre. Registriert wurden EKG (Frequenz) und Blutdruck (Riva-Rocci) bis max. 13 Minuten nach Injektionsbeginn. Die Min.-Frequenz ermittelte sich aus 10 aufeinanderfolgenden QRS-Komplexen.
Data set [6] relates to Meerschweinchen-Lungenpräparat. The experiment in a line: Bronchodilator effect on guinea pig lung preparation (perfusion flow rate). As to conditions: in vitro, 100 µg/ml.
The next data set relates to Ratten. The data set can be described thus: Diuretic effect in rats, method of Lipschitz et al. (Na excretion score). As to conditions: 20 mg/kg p.os, quotient of Na excretion after test substance to Na excretion of control. Type of data set: in vivo. An excerpt: Diese Untersuchung an Ratten wurde nach der Methode von Lipschitz et al., j.p.e.t. 79, 97-110, 1954, durchgeführt.
Der errechnete Score entspricht einem Quotienten aus Na-Ausscheidungen nach der Testsubstanz durch Na-Ausscheidung des Kontroll-Leerwertes.
Die Untersuchung an Ratten wurde wie unter 1. durchgeführt. Für den diuretischen Wirkungs-Score gilt gleiches.

The subject of a further data set is Maus. The data set can be described thus: Acute toxicity in the mouse (new caroverine salts). Type of data set: in vivo. The following applies: for Akute Toxizität, observation: in vivo; for Letale Dosis: mouse, i.p. How it is done: Letale Dosis: • 200 mg/kg i.p..
The next data set has as its system Agonisten (Atropin). The data set can be described thus: Anticholinergic effect in vitro, guinea pig. Details: species or system Meerschweinchen. The following applies: 10 µg/ml. How it is done:
In vitro ergab sich am Meerschweinchen mit einer Dosis von 10 µg/ml eine mehr als 80 %ige Hemmung des verwendeten Agonisten (Atropin).

Data set [7] deals with isolierte, nach Langendorff perfundierte Meerschweinchenherz. The data set can be described thus: Isolated Langendorff-perfused guinea pig heart: coronary flow, contraction amplitude, heart rate. The arrangement: species or system Meerschweinchen.
Excerpt: Meerschweinchen wurden durch Genickschlag getötet, der Thorax eröffnet, der Herzbeutel aufgeschnitten, die Aorta mit einem Faden angeschlungen und in der pars ascendens angeschnitten. Nach Einbinden einer Glaskanüle in die Aorta wurde die aorta pulmonalis eröffnet und anschliessend das Coronargefässsystem durch die Aortenkanüle unter leichten Druck mit einer Spitze durchgespült. Nach Dulchirennung aller anhängenden Gefässe wurde das Herz an der Aortenkanüle in die feuchte Kammer einer modifizierten Langendorff-Apparatur gehängt und mit carbogengesättigter Tyrodelösung von 37^uC mit einem Druck von 55 cm H20 perfundiert. An der Herzspitze wurde eine Serre fine angebracht, die über einen Faden mit einem zweiarmigen Hebel verbunden war, der die Kontraktionsamplitude auf einem Russkymographen aufzeichnete. Alle Herzen waren mit 4 g belastet. Der Schreibhebel passierte bei seinen Ausschlägen die Lichtschranke einer Fotozelle. Dadurch konnte die Herzfrequenz über einen Totalisator (nach FLEISCH, Firma B. Braun, Melsungen) registriert werden. Die aus dem rechten Vorhof frei abfliessende Perfusionslösung tropfte auf einen elektrischen Kontakt. Die Tropfenzahl wurde mittels eines zweiten Totalisators aufgezeichnet,und nach Eichung in ml/min der Coronardurchfluss bestimmt.
Nach Fertigstellung der Präparate wurde bis zum Versuchsbeginn 45 Min. gewartet. Nach dieser Zeit hatten Kontaktionsamplitude, Frequenz und Coronardurchblutung ein konstantes Niveau erreicht.
Caroverin wurde in Einzeldosen von 1, 10, 100 sowie 1000 ug verabreicht. Theophyllin wurde in Dosen von 10, 100 sowie 1000 ug gegeben. In allen Versuchen wurden Caroverin und Theophyllin abwechselnd verabreicht, wobei jeweils eine Zeitspanne von 5 Min. zwischen zwei Einzelinjektionen lag. Alle Injektionsvolumina betrugen 0.1 ml.
Die Effekte der Substanzen wurden ermittelt,indem in jedem Versuch bei jeder Einzeldosis die maximalen Zu- bzw. Abnahmen der entsprechenden Parameter gegenüber dem jeweiligen Ausganswert bestimmt und diese Einzeleffekte gemittelt wurden. Statistische Signifikanzberechnungen erfolgten nach dem t-Test (student's-Test).
Where [8] appears, read: group B, ca. 70 min after start of application.
[9] abbreviates: group C, 2 1/2 to 3 h after start of application.

Molecules are shown by their SMILES. Structures can show the parent of a compound that is named as a salt.

One may read the LD50 as the dose at which mortality reaches 50%. High values mean a less toxic substance, low ones a more toxic substance.

Regarding `Cc1ccccc1OCC(O)CO` (stereo not shown) [Mephenesin], in data set [1], the ED50 was 25 mg/kg and the “Zeit für 50%ige Erholung” value was “ca 13 min”.
As for `Cc1ccc(C(=O)C(C)CN2CCCCC2)cc1` (stereo not shown) [Tolperison-Hydrochlorid], in data set [1], the ED50 turned out to be 4 mg/kg and the “Zeit für 50%ige Erholung” value is “ca. 10 min”.
Consider `CCN(CC)CCn1c(=O)c(Cc2ccc(OC)cc2)nc2ccccc21` [Caroverinfumarat], for which the “mittlere Herzfrequenz, % of value before application” value turned out to be 86% with Herzfrequenz (group A (heart-healthy), end of application after 40 min); 79% with Herzfrequenz (group A, 2 h after start of application); 90% in the data set with Herzfrequenz (group B (coronary heart disease), end of application); 84% in the data set on Herzfrequenz (setting [8]); 86% in the data set with Herzfrequenz (group C (diseased conduction system), end of application); 82% with Herzfrequenz (setting [9]). Moreover, the “mittlere Herzfrequenz” value with Herzfrequenz (group A (heart-healthy), end of application after 40 min, 20 mg i.v. then 10 mg every 4 min up to 120 mg, baseline 72/Min.) is 62 min⁻¹; in the data set with Herzfrequenz (group A, 2 h after start of application, lasting to end of 4 h observation), 57 min⁻¹; in the data set on Herzfrequenz (group B (coronary heart disease), end of application, baseline 77/Min.) it was 69 min⁻¹; in the data set on Herzfrequenz (setting [8]) it was 65 min⁻¹; in the data set on Herzfrequenz (group C (diseased conduction system), end of application, baseline 66/Min.) it was 57 min⁻¹; in the data set on Herzfrequenz (setting [9]), 54 min⁻¹. For the same compound, the ED50 in [1] was determined as 1.5 mg/kg. Moreover, the “Zeit für 50%ige Erholung” value in data set [1] was more than 30 min. The “anemische Decerebrationsstarre” value in data set [1] (stronger and longer lasting than Tolperison-Hydrochlorid and Mephenesin) was “unverzüglich aufgehoben”. The Aggregations-Hemmeffekt result in the data set with Thrombozytenaggregation [2] was “Aehnliche Ergebnisse”; in the data set on Thrombozytenaggregation [3] (rabbit platelet-rich plasma, collagen from bovine Achilles tendon, several micromolar concentrations (Fig. 1-3), intensity between Benzyclanfumarat and Aspirin) it was “eindeutigen Hemmungseffekt”. Moreover, the “Herzfrequenz (HR)” value in the data set with Hunden is given as “Herabsetzung der Herzfrequenz”. Besides, in the data set with Hunden, the “System-Blutdruck (SBP)” value is reported as “Herabsetzung des System-Blutdrucks”. In addition, the “coronarer Sinus-Ausfluss (CSF)” value in the data set with Hunden is on record as “Rasch zunehmende und langsam abklingende Zunahme des coronaren Sinus-Ausflusses”. For the same compound, the LD50 in data set [4] (intravenous) is 39 mg/kg; in [4] (ip, intraperitoneal) it was 138 mg/kg; in data set [4] (oral) it was 800 mg/kg. Besides, the Vorhofflimmer-Frequenz result in data set [5] (6 patients, 200 mg i.v.) is “ohne messbare Veränderung”. Besides, the “rhythmisierender Effekt” value in data set [5] (6 patients, 200 mg i.v.) is on record as “nicht nachgewiesen”. In data set [5] (6 patients, 200 mg i.v. within 3-5 min), the “maximale systolische Blutdruckabfall” value is 29,3 (+ 8,2/-9,3) %. In data set [5] (mean of 6 patients, 200 mg i.v. within 3-5 min), the “diastolische Blutdruckabfall” value is listed as 26,6 (+ 10,9/-11,6) %. In addition, the “maximale Frequenz-Abfall im Vergleich zum Ausgangswert” value in data set [5] (mean of 6 patients, 200 mg i.v. within 3-5 min, up to 13 min after start of injection) is listed as 26,6 (+ 7,2/-4,7) %.
For the compound `CCN(CC)CCn1c(=O)c(Cc2ccc(OC)cc2)nc2ccccc21` [Caroverin-Nicotinat], the Perfusions-Fliessrate result in [6] is recorded as “eindeutige Zunahme der Perfusions-Fliessrate”. Also, the “diuretischer Wirkungs-Score” value in the data set on Ratten (20 mg/kg) is given as 2.6. The “Akute Toxizität, observation” value is recorded as “keine Auffälligkeiten” in the data set on Maus (300 mg/kg) and “Abnahme des Muskeltonus in den Extremitäten, sowie eine leichte Abnahme des Haltegriffes” in the data set on Maus (ip, 100 mg/kg). Also, the “Letale Dosis” value in the data set on Maus is reported as 200 mg/kg. The “Hemmung des verwendeten Agonisten (Atropin)” value with Agonisten (Atropin) is reported as more than 80%. Also, in the data set with Thrombozytenaggregation [3] (Oryctolagus cuniculus, Platelet, in vitro, rabbit, 10 mcg/ml, read-out: Hemmung der collagen-induzierten Plättchenaggregation), the inhibition at 10 µg/mL worked out at 100%.
Turning to `Cn1c(=O)c2[nH]cnc2n(C)c1=O` [Theophyllin, reference compound], the Herzfrequenz entry in data set [7] (1000pg as printed, in all experiments) is given as “die Herzfrequenz vorübergehend steigerte”. Besides, in data set [7] (doses used (10, 100, 1000 ug)), the Kontraktionsamplitude entry is recorded as “keine signifikanten Aenderungen der Kontraktionsamplitude”. Besides, the Coronardurchfluss entry in [7] (single doses Caroverin 1-1000 ug, Theophyllin 10-1000 ug, 1000 Theophyllin about equal to 100 Caroverin) is given as “steigernde Wirkung auf den Coronardurchfluss”.
With `CC(=O)S[C@@H]1CC2=CC(=O)CC[C@]2(C)[C@H]2CC[C@@]3(C)[C@@H](CC[C@@]34CCC(=O)O4)[C@H]12` [Spironolacton, reference compound], the “diuretischer Wirkungs-Score” value in the data set with Ratten is reported as 3.6.
On to `CCN(CC)CCn1c(=O)c(Cc2ccc(OC)cc2)nc2ccccc21` [Caroverin-Theophyllinat], for which the Perfusions-Fliessrate entry in data set [6] is given as “eindeutige Zunahme der Perfusions-Fliessrate”. Besides, the “diuretischer Wirkungs-Score” value with Ratten (20 mg/kg) came out at 2.8. Also, the “Akute Toxizität, observation” value in the data set with Maus (300 mg/kg) is reported as “keine Auffälligkeiten”; in the data set with Maus (ip, 100 mg/kg) it was “leichte Muskelrelaxation”. The “Letale Dosis” value in the data set on Maus was 200 mg/kg. In addition, the “Hemmung des verwendeten Agonisten (Atropin)” value with Agonisten (Atropin) is reported as more than 80%.
